Laboratory results as given in PubChem BioAssay (NCI).
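96-well plates; 48 h exposure; 5 concentrations. Endpoints by linear interpolation between flanking doses. Not reached: highest tested concentration assigned. TGI is the concentration that stops growth completely.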

How the values were obtained:
Assay in all cases: DTP human tumour cell line panel, 48 h
U251 CNS = test system: U251 CNS
LOX IMVI melanoma = test system: LOX IMVI melanoma
UACC-62 melanoma = test system: UACC-62 melanoma
DMS 114 small cell lung = test system: DMS 114 small cell lung
HT29 colon = test system: HT29 colon
NCI-H460 lung = test system: NCI-H460 lung
LXFL 529 NSCLC = test system: LXFL 529 NSCLC
OVCAR-4 ovarian = test system: OVCAR-4 ovarian
HCC-2998 colon = test system: HCC-2998 colon
HOP-18 NSCLC = test system: HOP-18 NSCLC
SR leukemia = test system: SR leukemia
MALME-3M melanoma = test system: MALME-3M melanoma
OVCAR-3 ovarian = test system: OVCAR-3 ovarian
HCT-116 colon = test system: HCT-116 colon
NCI-H522 lung = test system: NCI-H522 lung
HOP-62 NSCLC = test system: HOP-62 NSCLC
ACHN renal = test system: ACHN renal
CAKI-1 renal = test system: CAKI-1 renal
SK-MEL-28 melanoma = test system: SK-MEL-28 melanoma
RPMI-8226 leukemia = test system: RPMI-8226 leukemia

SMILES: COc1c2c(c3ccccc3c1O)C1C=CC2C1 (stereo not given)
- TGI (U251 CNS): 23.9 µM
- TGI (LOX IMVI melanoma): 17.1 µM
- TGI (UACC-62 melanoma): 30.4 µM
- TGI (DMS 114 small cell lung): 19.6 µM
- TGI (HT29 colon): 39.2 µM
- TGI (NCI-H460 lung): 34 µM
- TGI (LXFL 529 NSCLC): 14.7 µM
- TGI (OVCAR-4 ovarian): 28.7 µM
- TGI (HCC-2998 colon): 29.7 µM
- TGI (HOP-18 NSCLC): 28.5 µM
- TGI (SR leukemia): 68.4 µM
- TGI (MALME-3M melanoma): 18.8 µM
- TGI (OVCAR-3 ovarian): 27.6 µM
- TGI (HCT-116 colon): 14.6 µM
- TGI (NCI-H522 lung): 29.3 µM
- TGI (HOP-62 NSCLC): 29.7 µM
- TGI (ACHN renal): 27.5 µM
- TGI (CAKI-1 renal): 30.8 µM
- TGI (SK-MEL-28 melanoma): 37.9 µM
- TGI (RPMI-8226 leukemia): > 100 µM
